Assay results reported in publication PMC11191095, “QSAR Reveals Decreased Lipophilicity of Polar Residues Determines the Selectivity of Antimicrobial Peptide Activity” (ACS Omega, 2024).
Where a SMILES comes first, the peptide text is derived from it.

Assays:
[1] = system: HaCat cell line; test: In vitro HaCat cytotoxicity (MTT); format: cell-based, human; conditions: 21 h exposure, OD570, relative to untreated control
Experimental: The HaCat cell line (Cellonex, South Africa) was cultured in Dulbecco’s Modified Eagle Medium (DMEM) supplemented with 10% heat-inactivated fetal calf serum (FCS) and 1% antibiotic-antimycotic (Abs) and maintained at 5–10% CO2, 37 °C, 95% humidity. For cytotoxicity screening, 5.56 × 10^4 cells/mL were plated in a 96-well plate. After 24 h incubation, the cells are initially exposed to each peptide at a concentration of 256 μg/mL or 0.1% Triton-X-100 as the control for 21 h. If cytotoxicity was observed, at a level of significance of p < 0.0001 compared with the untreated control after 21 h, a dose-response assay was undertaken. Cell viability was determined by adding 10% 3-(4,5-dimethyl-2-thiazolyl)-2,5-diphenyl-2H-tetrazolium bromide (MTT) (1 mg/mL), to each well and after a further 3 h incubation the media was discarded, and the formazan crystals dissolved by adding 25% DMSO in ethanol. The absorbance was measured at OD570 by using the FLUOstar Omega multidetection microplate reader (BMG Labtech). Percentage cell viability was calculated relative to the untreated control. The LC50 was defined as the concentration of AMP treatment that results in 50% lethality of HaCat cells and was determined from the dose-response curves.

[2] = system: S. aureus (MSSA) ATCC 9144; test: microbe, parasite or virus in culture; format: cell-based, Staphylococcus aureus; conditions: ATCC 9144, 20 h
Procedure, shortened: (§1)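 Peptides 128→2 μg/mL, 2-fold series; inoculum ~5 × 10^5 CFU/mL from overnight culture (OD600 0.01, mixed 1:1). MHB non-cation-adjusted for bacteria, RPMI 1640 + 2% glucose for fungi. 37 °C, 20 h, OD600. MIC50/MIC90 at 50%/90% inhibition; n ≥ 3.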

[3] = system: C. glabrata NCPF 8018; test: microbe, parasite or virus in culture; format: cell-based; conditions: NCPF 8018, 20 h
Procedure, shortened: as §1

[4] = system: C. albicans NCPF 3281; test: microbe, parasite or virus in culture; format: cell-based; conditions: NCPF 3281, 20 h
Procedure, shortened: as §1

[5] = system: C. parapsilosis NCPF 3209; test: microbe, parasite or virus in culture; format: cell-based; conditions: NCPF 3209, 20 h
Procedure, shortened: as §1

[6] = system: C. krusei NCPF 3876; test: microbe, parasite or virus in culture; format: cell-based; conditions: NCPF 3876, 20 h
Procedure, shortened: as §1

[7] = system: C. tropicalis NCPF 8760; test: microbe, parasite or virus in culture; format: cell-based; conditions: NCPF 8760, 20 h
Procedure, shortened: as §1

[8] = system: C. auris TDG 1912; test: microbe, parasite or virus in culture; format: cell-based, Candida auris; conditions: TDG 1912, 20 h
Procedure, shortened: as §1

[9] = system: human erythrocytes; test: In vitro hemolytic activity; format: cell-based; conditions: 1 h
Experimental: Potential erythrocyte hemolysis was tested by incubating serial dilutions of the AMPs in PBS with freshly collected erythrocytes at a ratio of 1:1 in 96-well polypropylene V-shape plates for 1 h at 37 °C. Control wells were treated with 0.1% Triton-X-100 to ensure complete lysis or PBS-only to represent no lysis. The erythrocytes were collected by centrifugation and the OD550 of the supernatant was measured using a plate reader. The percentage hemolysis was calculated as [drawing 1] 1 where Apeptide is the absorbance value of erythrocytes exposed to a known peptide concentration, Agrowth control is the absorbance of erythrocytes exposed to 0.1% Triton-X-100 and Ablank is the absorbance of erythrocytes exposed to the PBS. The concentrations at which a peptide caused 10% (HC10) and 50% (HC50) hemolysis was determined from the dose response curves.

[10] = system: E. coli LEC001; test: microbe, parasite or virus in culture; format: cell-based, Escherichia coli; conditions: LEC001, 20 h
Procedure, shortened: as §1

[11] = system: E. coli NCTC 12923; test: microbe, parasite or virus in culture; format: cell-based, Escherichia coli; conditions: NCTC 12923, 20 h
Procedure, shortened: as §1

[12] = system: A. baumannii ATCC 17978; test: microbe, parasite or virus in culture; format: cell-based, Acinetobacter baumannii; conditions: ATCC 17978, 20 h
Procedure, shortened: as §1

[13] = system: K. pneumoniae M6; test: microbe, parasite or virus in culture; format: cell-based, Klebsiella pneumoniae; conditions: M6, 20 h
Procedure, shortened: as §1

| SMILES | % HaCat cell death at initial screening (256μg/mL) ± SD [1] [%] | Modal MIC [2] [µM] | Modal MIC50 [3] [µM] | Modal MIC90 [3] [µM] | Modal MIC50 [4] [µM] | Modal MIC90 [4] [µM] | Modal MIC50 [5] [µM] | Modal MIC90 [5] [µM] | Modal MIC50 [6] [µM] | Modal MIC90 [6] [µM] | Modal MIC50 [7] [µM] | Modal MIC90 [7] [µM] | Modal MIC50 [8] [µM] | Modal MIC90 [8] [µM] | HC10 (concentration causing 10% hemolysis) ([9]; human erythrocytes in PBS, 37 °C, OD550, from dose response curves) [µg/mL] | % hemolysis ([9]; red cells of human, 256 μg/mL) | Modal MIC [10] [µM] | Modal MIC [11] [µM] | Modal MIC [12] [µM] | Modal MIC [13] [µM] |
| --- | --- | --- | --- | --- | --- | --- | --- | --- | --- | --- | --- | --- | --- | --- | --- | --- | --- | --- | --- | --- |
| CC[C@H](C)[C@H](NC(=O)[C@H](C)NC(=O)[C@H](Cc1c[nH]cn1)NC(=O)[C@@H]1CCCN1C(=O)[C@@H](NC(=O)[C@H](CC(C)C)NC(=O)[C@H](CO)NC(=O)[C@H](Cc1ccccc1)NC(=O)[C@H](CC(C)C)NC(=O)[C@@H](N)Cc1ccccc1)[C@@H](C)CC)C(=O)NCC(=O)NCC(=O)N[C@@H](CC(C)C)C(=O)N[C@H](C(=O)N[C@@H](CO)C(=O)N[C@@H](C)C(=O)N[C@@H](Cc1ccccc1)C(=O)N[C@@H](CCCCN)C(=O)O)[C@@H](C)CC [AamAP1] | 44.3 ±20.2 |  |  |  |  |  |  |  |  |  |  |  |  |  |  |  |  |  |  |  |
| CSCC[C@H](NC(=O)[C@H](CCSC)NC(=O)[C@H](CCCCN)NC(=O)CNC(=O)[C@@H](NC(=O)[C@@H](NC(=O)[C@H](CCCCN)NC(=O)[C@H](CC(C)C)NC(=O)CNC(=O)[C@H](Cc1ccccc1)NC(=O)[C@H](CCCCN)NC(=O)[C@H](Cc1ccccc1)NC(=O)[C@H](C)NC(=O)[C@H](CCCCN)NC(=O)CNC(=O)[C@H](CC(C)C)NC(=O)[C@H](CC(C)C)NC(=O)[C@H](CO)NC(=O)CNC(=O)[C@H](CC(C)C)NC(=O)CN)[C@@H](C)O)C(C)C)C(=O)NCC(=O)NCC(=O)N[C@@H](C)C(=O)N1CCC[C@H]1C(=O)N[C@@H](CCCNC(=N)N)C(=O)N[C@@H](CCC(=O)O)C(=O)N[C@@H](CCC(N)=O)C(=O)O [CPF-MW1] (H-GLGSLLGKAFKFGLKTVGKMMGGAPREQ-OH) |  | 1.4 | > 43.1 | > 43.1 | > 43.1 | > 43.1 | > 43.1 | > 43.1 | 10.8 | 10.8 | 21.6 | 21.6 | > 43.1 | > 43.1 | 214 | more than 10% | 2.7 | 2.7 | 1.4 | 5.4 |
